Measurements: US8859549B2, “Potassium channel modulators” (AbbVie, Inc., priority 2011, dated 2014)

Biological target: T1, KCNQ 2/3 channels (Homo sapiens, UniProt O43525+O43526)
T1 construct: expressed in transfected cells; host or cells: HEK293
Assay: KCNQ 2/3 channel activation, thallium flux FLIPR assay (BTC-AM dye)
Assay type: cell-based
Details: for Emax: HEK293, maximum response relative to the response of 10 μM retigabine (set at 100%), HEK293 KCNQ2/KCNQ3 cells, read-out: % MAX; for EC50: HEK293 cells stably expressing human KCNQ2 and KCNQ3 subunits, thallium-induced fluorescence, 4 min compound incubation
In short: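 HEK293 cells stably expressing human KCNQ2/KCNQ3 were loaded with BTC-AM (3 μg/mL, 2 h, RT) and preincubated with compound for 4 min in pH 7.3 gluconate buffer containing 0.1 mM ouabain. Flux was triggered by 6 mM TlNO3/10 mM K2SO4 and read for 3 min; EC50 came from summed responses over basal, with maximum relative to 10 μM retigabine (100%).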

Structure (SMILES)	Emax	EC50
CC1CN(c2nn(NC(=O)Cc3cc(F)cc(F)c3)c(=O)c3ccccc23)CC(C)O1 (stereo not drawn) [Example 60, 2-(3,5-difluorophenyl)-N-[4-(2,6-dimethylmorpholin-4-yl)-1-oxophthalazin-2(1H)-yl]acetamide]	105%	474 nM
O=C(CC1CC2CCC1C2)Nn1nc(-c2ccc(F)nc2)c2ccccc2c1=O (racemic) [Example 54, (±)-2-[(exo)-bicyclo[2.2.1]hept-2-yl]-N-[4-(6-fluoropyridin-3-yl)-1-oxophthalazin-2(1H)-yl]acetamide]	183%	408 nM
O=C(Cc1cc(F)cc(F)c1)Nn1nc([S+]([O-])c2ccccc2)c2ccccc2c1=O (stereo not drawn) [Example 83, 2-(3,5-difluorophenyl)-N-[1-oxo-4-(phenylsulfinyl)phthalazin-2(1H)-yl]acetamide]	105%	1100 nM
O=C(CC1CC2CCC1C2)Nn1nc(-c2ccnc(Cl)c2)c2ccccc2c1=O (racemic) [Example 29, (±)-2-[(exo)-bicyclo[2.2.1]hept-2-yl]-N-[4-(2-chloropyridin-4-yl)-1-oxophthalazin-2(1H)-yl]acetamide]	137%	67.1 nM
O=C(CC1CC2CCC1C2)Nn1nc(S(=O)(=O)c2ccccc2)c2ccccc2c1=O (racemic) [Example 70, (±)-2-[(exo)-bicyclo[2.2.1]hept-2-yl]-N-[1-oxo-4-(phenylsulfonyl)phthalazin-2(1H)-yl]acetamide]	179%	13.1 nM
CC(C)(C)CC(=O)Nn1nc(N2CCOCC2)c2ccccc2c1=O [Example 135, 3,3-dimethyl-N-[4-(morpholin-4-yl)-1-oxophthalazin-2(1H)-yl]butanamide]	75.3%	11800 nM
COC(=O)c1cc(-c2nn(NC(=O)CC3CC4CCC3C4)c(=O)c3ccccc23)ccn1 (racemic) [Example 74, (±)-methyl 4-(3-{[(exo)-bicyclo[2.2.1]hept-2-ylacetyl]amino}-4-oxo-3,4-dihydrophthalazin-1-yl)pyridine-2-carboxylate]	21.8%	
CC(C)(C)NC(=O)c1nn(NC(=O)CC2CC3CCC2C3)c(=O)c2ccccc12 (racemic) [Example 99, (±)-3-{[(exo)-bicyclo[2.2.1]hept-2-ylacetyl]amino}-N-tert-butyl-4-oxo-3,4-dihydrophthalazine-1-carboxamide]	177%	206 nM

Other lines, results leading:

Emax	EC50	Structure (SMILES)
33.3%		O=C(Cc1cccc(C(F)(F)F)c1)Nn1nc(S(=O)(=O)c2ccccc2)c2ccccc2c1=O [Example 208, N-[1-oxo-4-(phenylsulfonyl)phthalazin-2(1H)-yl]-2-[3-(trifluoromethyl)phenyl]acetamide]
63.4%	1780 nM	CC(C)(CC(=O)Nn1nc(S(=O)(=O)c2ccccc2)c2ccccc2c1=O)c1ccccc1 [Example 194, 3-methyl-N-[1-oxo-4-(phenylsulfonyl)phthalazin-2(1H)-yl]-3-phenylbutanamide]
164%	24 nM	O=C(CC1CC2CCC1C2)Nn1nc(S(=O)(=O)c2ccc(Br)cc2)c2ccccc2c1=O (racemic) [Example 204, (±)-2-[(exo)-bicyclo[2.2.1]hept-2-yl]-N-{4-[(4-bromophenyl)sulfonyl]-1-oxophthalazin-2(1H)-yl}acetamide]
18.7%		O=C(Cc1ccccc1F)Nn1nc(N2CCOCC2)c2ccccc2c1=O [Example 148, 2-(2-fluorophenyl)-N-[4-(morpholin-4-yl)-1-oxophthalazin-2(1H)-yl]acetamide]
87.9%	79.2 nM	O=C(Cc1ccc(F)cc1)Nn1nc(S(=O)(=O)c2ccccc2)c2ccccc2c1=O [Example 193, 2-(4-fluorophenyl)-N-[1-oxo-4-(phenylsulfonyl)phthalazin-2(1H)-yl]acetamide]
32%		O=C(Cc1ccc(Cl)cc1)Nn1nc(CNC(=O)OC2CCCC2)c2ccccc2c1=O [Example 187, cyclopentyl[(3-{[(4-chlorophenyl)acetyl]amino}-4-oxo-3,4-dihydrophthalazin-1-yl)methyl]carbamate]
